In the NIST ThermoML archive (doi:10.1016/j.fluid.2006.07.013):

Test: xn = mol fraction of the nth substance listed

CC(C)COC(=O)CCCCC(=O)OCC(C)C [diisobutyl adipate] + O=C=O
Settings | mass density [kg/m3]
294.75 K, Liquid, Volume and mass of phase, x1 = 0.11 | 807
295.25 K, Liquid, Volume and mass of phase, x1 = 0.039 | 795
298.95 K, Liquid, Volume and mass of phase, x1 = 0.11 | 805
302.75 K, Liquid, Volume and mass of phase, x1 = 0.096 | 814
304.65 K, Liquid, Volume and mass of phase, x1 = 0.11 | 805
305.35 K, Gas, volume and mass of phase, x1 = 0.011 | 702
305.75 K, Liquid, Volume and mass of phase, x1 = 0.039 | 764
308.85 K, Liquid, Volume and mass of phase, x1 = 0.11 | 791
310.35 K, Liquid, Volume and mass of phase, x1 = 0.064 | 793
311.05 K, Gas, volume and mass of phase, x1 = 0.011 | 667
311.25 K, Liquid, Volume and mass of phase, x1 = 0.161 | 865
311.95 K, Liquid, Volume and mass of phase, x1 = 0.592 | 813
312.15 K, Liquid, Volume and mass of phase, x1 = 0.282 | 853
314.45 K, Liquid, Volume and mass of phase, x1 = 0.11 | 789
316.85 K, Liquid, Volume and mass of phase, x1 = 0.039 | 739
322.15 K, Liquid, Volume and mass of phase, x1 = 0.096 | 800
322.55 K, Liquid, Volume and mass of phase, x1 = 0.11 | 791
323.65 K, Liquid, Volume and mass of phase, x1 = 0.282 | 832
329.95 K, Gas, volume and mass of phase, x1 = 0.011 | 639
330.75 K, Liquid, Volume and mass of phase, x1 = 0.11 | 766
332.65 K, Liquid, Volume and mass of phase, x1 = 0.039 | 732
332.75 K, Liquid, Volume and mass of phase, x1 = 0.592 | 829
337.45 K, Liquid, Volume and mass of phase, x1 = 0.282 | 821
342.05 K, Liquid, Volume and mass of phase, x1 = 0.11 | 756
343.35 K, Liquid, Volume and mass of phase, x1 = 0.064 | 762
345.25 K, Liquid, Volume and mass of phase, x1 = 0.039 | 702
347.35 K, Liquid, Volume and mass of phase, x1 = 0.096 | 768
350.15 K, Liquid, Volume and mass of phase, x1 = 0.282 | 810
351.35 K, Liquid, Volume and mass of phase, x1 = 0.592 | 819
353.25 K, Liquid, Volume and mass of phase, x1 = 0.161 | 791
356.25 K, Liquid, Volume and mass of phase, x1 = 0.11 | 740
357.45 K, Gas, volume and mass of phase, x1 = 0.011 | 558
357.75 K, Liquid, Volume and mass of phase, x1 = 0.039 | 675
360.85 K, Liquid, Volume and mass of phase, x1 = 0.064 | 724
363.05 K, Liquid, Volume and mass of phase, x1 = 0.282 | 800
366.65 K, Liquid, Volume and mass of phase, x1 = 0.039 | 660
369.85 K, Liquid, Volume and mass of phase, x1 = 0.096 | 731
370.95 K, Liquid, Volume and mass of phase, x1 = 0.592 | 807
371.25 K, Liquid, Volume and mass of phase, x1 = 0.11 | 723
371.55 K, Liquid, Volume and mass of phase, x1 = 0.282 | 791
376.85 K, Gas, volume and mass of phase, x1 = 0.039 | 638
378.45 K, Gas, volume and mass of phase, x1 = 0.011 | 518
380.95 K, Liquid, Volume and mass of phase, x1 = 0.161 | 760
381.65 K, Liquid, Volume and mass of phase, x1 = 0.064 | 687
383.95 K, Liquid, Volume and mass of phase, x1 = 0.282 | 776
391.15 K, Liquid, Volume and mass of phase, x1 = 0.592 | 790
392.25 K, Liquid, Volume and mass of phase, x1 = 0.096 | 696
400.05 K, Gas, volume and mass of phase, x1 = 0.064 | 655
400.55 K, Liquid, Volume and mass of phase, x1 = 0.282 | 760
401.45 K, Gas, volume and mass of phase, x1 = 0.039 | 588
401.65 K, Liquid, Volume and mass of phase, x1 = 0.11 | 681
404.55 K, Gas, volume and mass of phase, x1 = 0.011 | 471
408.05 K, Liquid, Volume and mass of phase, x1 = 0.161 | 721
409.85 K, Liquid, Volume and mass of phase, x1 = 0.592 | 777
419.65 K, Liquid, Volume and mass of phase, x1 = 0.282 | 740
420.05 K, Liquid, Volume and mass of phase, x1 = 0.096 | 651
421.25 K, Gas, volume and mass of phase, x1 = 0.064 | 617
421.85 K, Liquid, Volume and mass of phase, x1 = 0.161 | 706
423.15 K, Liquid, Volume and mass of phase, x1 = 0.592 | 772
423.65 K, Liquid, Volume and mass of phase, x1 = 0.11 | 650
424.65 K, Gas, volume and mass of phase, x1 = 0.039 | 541
